“And” between values parts separate entries of the source, which are not always exact repeats. Identical values can stand only once. Some results are limits rather than exact numbers.

Chain of EGFR (human), P00533 [WT] (P00533 whole entry, looked up): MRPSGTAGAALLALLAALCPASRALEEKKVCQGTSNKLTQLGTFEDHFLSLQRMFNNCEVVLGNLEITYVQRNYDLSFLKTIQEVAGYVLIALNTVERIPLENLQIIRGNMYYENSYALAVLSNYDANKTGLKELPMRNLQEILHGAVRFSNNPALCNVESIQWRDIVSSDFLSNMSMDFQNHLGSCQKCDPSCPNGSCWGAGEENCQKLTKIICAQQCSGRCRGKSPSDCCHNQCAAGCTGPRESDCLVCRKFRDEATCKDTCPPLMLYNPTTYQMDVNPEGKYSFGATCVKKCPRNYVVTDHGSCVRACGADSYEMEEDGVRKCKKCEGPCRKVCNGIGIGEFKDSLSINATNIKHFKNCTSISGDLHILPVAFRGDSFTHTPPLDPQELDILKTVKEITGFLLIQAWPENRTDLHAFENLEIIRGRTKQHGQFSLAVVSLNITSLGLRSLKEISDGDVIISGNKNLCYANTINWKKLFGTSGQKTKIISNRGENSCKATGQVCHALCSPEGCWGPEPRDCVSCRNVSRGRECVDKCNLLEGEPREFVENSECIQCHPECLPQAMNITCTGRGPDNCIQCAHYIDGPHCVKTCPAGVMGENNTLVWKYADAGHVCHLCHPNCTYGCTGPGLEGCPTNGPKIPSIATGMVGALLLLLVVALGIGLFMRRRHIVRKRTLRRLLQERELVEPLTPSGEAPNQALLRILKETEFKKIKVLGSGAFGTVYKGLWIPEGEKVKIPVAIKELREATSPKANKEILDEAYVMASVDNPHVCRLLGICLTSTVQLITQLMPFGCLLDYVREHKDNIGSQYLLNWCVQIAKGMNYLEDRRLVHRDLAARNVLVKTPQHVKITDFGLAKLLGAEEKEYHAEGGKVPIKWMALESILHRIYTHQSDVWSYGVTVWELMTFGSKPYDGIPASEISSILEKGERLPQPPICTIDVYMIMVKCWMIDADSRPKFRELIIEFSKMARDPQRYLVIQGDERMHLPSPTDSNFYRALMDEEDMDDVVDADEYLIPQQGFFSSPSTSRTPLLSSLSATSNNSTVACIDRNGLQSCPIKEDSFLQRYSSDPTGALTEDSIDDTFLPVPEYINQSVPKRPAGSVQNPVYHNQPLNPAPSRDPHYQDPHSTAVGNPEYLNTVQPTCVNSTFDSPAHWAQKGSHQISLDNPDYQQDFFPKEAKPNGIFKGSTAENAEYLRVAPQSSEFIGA

One assay has as its target EGFR (human), P00533 [WT].
Conditions: not given
On to `C[C@@H](Nc1ncnc2sc3c(c12)CCCC3)c1ccccc1`, for which the IC50 was determined as 3.24 µM.
Turning to `c1ccc(CNc2ncnc3sc4c(c23)CCCC4)cc1`, the IC50 stood at 2.6 µM.
As to `CN(C)C/C=C/C(=O)N1CCc2c(sc3ncnc(N[C@H](CO)c4ccccc4)c23)C1`, the IC50 was 0.007 µM and 0.006 µM.

For another assay, the target named is EGFR (Human), P00533 [T790M/L858R].
Chain of EGFR (Human), P00533 [T790M/L858R] (P00533 whole entry T790M/L858R, looked up): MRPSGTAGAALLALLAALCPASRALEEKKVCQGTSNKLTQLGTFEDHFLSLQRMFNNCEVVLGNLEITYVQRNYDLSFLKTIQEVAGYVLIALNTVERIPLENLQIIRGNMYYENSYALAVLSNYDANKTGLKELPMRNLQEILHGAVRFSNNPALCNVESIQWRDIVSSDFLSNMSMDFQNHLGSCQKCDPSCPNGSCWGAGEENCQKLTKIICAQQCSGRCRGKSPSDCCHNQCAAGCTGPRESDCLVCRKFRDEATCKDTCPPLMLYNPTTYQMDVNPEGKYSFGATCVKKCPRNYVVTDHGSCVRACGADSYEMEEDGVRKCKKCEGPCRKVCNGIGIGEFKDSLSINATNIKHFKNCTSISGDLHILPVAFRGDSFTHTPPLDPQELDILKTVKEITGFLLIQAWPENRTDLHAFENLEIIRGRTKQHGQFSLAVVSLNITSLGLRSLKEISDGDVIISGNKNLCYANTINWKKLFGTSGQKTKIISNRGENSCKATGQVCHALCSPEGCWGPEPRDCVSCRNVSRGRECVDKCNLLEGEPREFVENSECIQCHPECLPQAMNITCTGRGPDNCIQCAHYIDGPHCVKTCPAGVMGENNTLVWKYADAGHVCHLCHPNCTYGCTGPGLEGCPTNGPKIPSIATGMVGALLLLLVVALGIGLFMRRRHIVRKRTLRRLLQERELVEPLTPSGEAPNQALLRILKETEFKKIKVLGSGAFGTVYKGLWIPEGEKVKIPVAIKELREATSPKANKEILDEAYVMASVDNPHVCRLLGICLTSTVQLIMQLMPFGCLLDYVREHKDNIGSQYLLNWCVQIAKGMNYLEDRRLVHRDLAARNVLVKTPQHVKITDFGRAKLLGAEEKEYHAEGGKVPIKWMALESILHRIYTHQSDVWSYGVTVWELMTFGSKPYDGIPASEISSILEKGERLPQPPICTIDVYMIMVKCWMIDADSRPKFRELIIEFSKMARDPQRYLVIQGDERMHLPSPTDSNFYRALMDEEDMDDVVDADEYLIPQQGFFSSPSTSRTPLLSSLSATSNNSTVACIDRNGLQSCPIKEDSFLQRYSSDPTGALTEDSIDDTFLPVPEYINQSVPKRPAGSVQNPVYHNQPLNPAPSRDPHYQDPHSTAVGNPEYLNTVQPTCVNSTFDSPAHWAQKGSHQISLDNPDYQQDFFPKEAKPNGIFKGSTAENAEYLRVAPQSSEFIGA
Conditions: not given
`OC[C@@H](Nc1ncnc2sc3c(c12)CCCC3)c1ccccc1` gave an IC50 above 10 µM.
Still for that read-out and setting: to `CCC(=O)N1CCc2c(sc3ncnc(N[C@H](CO)c4ccccc4)c23)C1` belongs above 10 µM; to `CN(C)C/C=C/C(=O)N1CCc2c(sc3ncnc(NCCO)c23)C1`, above 10 µM; to `CN(C)C/C=C/C(=O)N1CCc2c(sc3ncnc(N[C@@H](CO)c4ccccc4)c23)C1`, above 10 µM.
In turn, `c1ccc(CNc2ncnc3sc4c(c23)CCCC4)cc1` showed an IC50 above 10 µM.
On the same count and under the same terms, then `OC[C@@H](Nc1ncnc2sc3c(c12)CCNC3)c1ccccc1`, with above 10 µM; and `C=CC(=O)N1CCc2c(sc3ncnc(N[C@@H](CO)c4ccccc4)c23)C1`, with above 10 µM.
Same read-out and setting: to `CN1CCN(C/C=C/C(=O)N2CCc3c(sc4ncnc(N[C@H](CO)c5ccccc5)c34)C2)CC1` belongs above 10 µM; to `O=C(/C=C/c1ccccc1)N1CCc2c(sc3ncnc(N[C@H](CO)c4ccccc4)c23)C1`, above 10 µM.

The target in another assay is EGFR (human) (UniProt P00533). The conditions noted are these: hcc827.
Chain of EGFR (human) (P00533 whole entry, looked up): as the sequence (P00533 whole entry, looked up) above
For `c1ccc(CNc2ncnc3sc4c(c23)CCCC4)cc1`, the IC50 was above 10 µM.

Broadly, the IC50 is the point on the concentration scale where inhibition reaches its midpoint.
